Results taken from patent publication US9920088B2, “Triterpene derivative and its anti-influenza use” (Peking University, priority 2012, dated 2018).
Read-outs that look alike come from different tables or passages of the source.

Tests used:
[1] = test system: A/LiaoNing-ZhenXing/1109/2010(H1N1); experiment: CPE reduction assay, LN/1109 (H1N1); assay type: cell-based; details: Influenza A virus
[2] = test system: A/HuNan-ZhuHui/1222/2010 (H3N2); experiment: CPE reduction assay, HN/1222 (H3N2); assay type: cell-based; details: Influenza A virus

Row | SMILES | EC50 ([1]; read-out: EC50) | EC50 ([2]; read-out: EC50) | EC50 [1] | EC50 [2]
1 | NC12CC3CC(CC(C3)C1)C2 [Amantadine, amantadine, reference compound] | 0.44 ± 0.14 µM | > 200 µM | – | –
2 | CC1(C)CC[C@]2(C(=O)O[C@H]3OC(CO)[C@@H](O)C(O)C3O)C(O)C[C@]3(C)C(=CC[C@@H]4[C@@]5(C)CC[C@H](O)C(C)(C)[C@@H]5CC[C@]43C)[C@@H]2C1 (stereo partly drawn) [Compound Q9, 3β,16α-dihydroxy-olean-12-en-28-oic acid-28-O-(β-D-galactoside)] | 17.8 ± 12.6 µM | 25.6 ± 9.14 µM | – | –
3 | CC1(C)CC[C@@]2(C(=O)N[C@H]3OC(CO)[C@@H](O)C(O)C3O)C(C1)C1=CCC3[C@@]4(C)CC[C@H](O)C(C)(C)C4CC[C@@]3(C)[C@]1(C)C[C@H]2O (stereo partly drawn) [Compound Y2, 3β,16α-dihydroxy-olean-12-en-28-oic acid-28-N-(β-D-galactoside)] | > 22.2 µM | > 22.2 µM | – | –
4 | CC(=O)OCC1O[C@H](NC(=O)[C@]23CCC(C)(C)CC2C2=CCC4[C@@]5(C)CC[C@H](O)C(C)(C)C5CC[C@@]4(C)[C@]2(C)CC3)C(OC(C)=O)C(OC(C)=O)[C@@H]1OC(C)=O (stereo partly drawn) [Compound Y5, 3β-hydroxy-olean-12-en-28-oic acid-28-N-(2,3,4,6-tetra-O-acetyl-β-D-galactoside)] | 6.58 ± 1.17 µM | 3.18 ± 0.08 µM | – | –
5 | CCOC(=O)C1=C[C@@H](OC(CC)CC)[C@H](NC(C)=O)[C@@H](N)C1 [OSV-P, oseltamivir phosphate, reference compound] | > 200 µM | 8.75 ± 4.41 µM | – | –
6 | NC(=O)c1ncn([C@@H]2O[C@H](CO)[C@@H](O)[C@H]2O)n1 [RBV, ribavirin, reference compound] | – | – | 5.75 ± 0.35 µM | 3.56 ± 0.24 µM
